# Measurements: PubChem BioAssay (NCI)
#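 These data come from cells grown in 96-well plates and exposed to compound for 48 hours at five concentrations. GI50 = concentration required for 50% inhibition of growth. TGI: total growth inhibition.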
# System: MDA-MB-468 breast
# Assay: NCI-60 cell line screen, 48 h
SMILES,GI50 [µM],TGI [µM]
CCOC(=O)c1c(C(F)(F)F)n([O-])c2ccc(OC)cc2[n+]1=O,2.58,7.41
Cc1ccc(C)c(-c2csc(Nc3ccc(C)c(C)c3)n2)c1,63.1,> 100
N#Cc1ccnc(N2C(=O)CC[C@H]2C(=O)N(c2cncc(F)c2)[C@H](C(=O)NC2CC(F)(F)C2)c2ccccc2Cl)c1,28.4,> 100
COc1cc2nc(Nc3cccc(F)c3)nc(Nc3cc(C)[nH]n3)c2cc1OC,1.63,3.23
C=C1C(=O)O[C@H]2[C@H]1CC/C(COC(=O)NCc1c[nH]c3ccc(Cl)cc13)=C\CC[C@@]1(C)O[C@@H]21,0.913,2.5
COc1ccc(C2=NN(C(C)=O)C(c3cn(-c4ccccc4)nc3-c3ccc(Cl)cc3)C2)cc1 (stereo not given),> 100,> 100
Nc1ccc(/C=N/Nc2ccnc3c(N)cccc23)c2cccnc12,1.39,2.99
CC[C@]12C=CCN3CC[C@]4(C(=C(C(=O)OC)C1)Nc1cc5c(cc14)[C@@H]1[C@H](O5)[C@@H](O)[C@@]4(CC)CC(C(=O)OC)=C5Nc6cc(OC)ccc6[C@@]56CCN1[C@@H]46)[C@@H]32,0.0944,1.34
CCCc1nc2c(C)cc(-c3nc4ccccc4n3C)cc2n1Cc1ccc(-c2ccccc2C(=O)O)cc1,37.4,> 100
CCCN(CCC)c1ccc(/C=N/NC(=O)c2cccnc2)c(Cl)c1,0.197,0.631
NCCC(O)(P(=O)(O)O)P(=O)(O)O,> 100,> 100
COc1cc(C(=O)c2cc3c(cc2C)OCO3)cc(OC)c1OC,0.0311,–
C=C(C)[C@@H]1CC[C@]2(C)[C@H](CC[C@@H]3[C@H]4[C@H]5OC[C@@]4(CCC5(C)C)CC[C@]32C)[C@@]1(C)CCCN,1.58,3.05
CSc1nc2sc3cc(Cl)ccc3n2c(=N)c1C#N,2.13,20
COc1cc(/C=C2\COc3ccc(O)c(O)c3C2=O)cc(OC)c1,1.91,6.69
Cc1[nH]c(=O)[nH]c(=O)c1CO,> 100,> 100
CCCCCCCC[N+](C)(CCCCCCCC)CCCCCCCC,0.202,0.901
COc1ccc(-c2nc(-c3nc4ccc(OC)cc4[nH]3)cc3c2[nH]c2ccccc23)cc1,3.16,> 100
CCOC(=O)c1sc(Nc2ccc(Cl)cc2)nc1C,1.56,4.24

SMILES,GI50 [µM],TGI [µM]
Nc1c(C(=O)Nc2ccccc2Cl)sc2nc3c(cc12)CCCCCC3,2.25,12
COc1ccc(NC(=O)c2sc3nc(C)c(C(O)c4ccccc4)cc3c2N)cc1 (stereo not given),1.9,70.1
CC(C)n1c2c([n+](C)c1/C=C/c1ccccc1)C(=O)c1ccccc1C2=O,< 0.01,0.0148
COc1ccc([N+](=O)[O-])c(S(=O)(=O)c2ccc(Cl)cc2)n1,1.93,4.76
Cn1cc(C2=C(c3cn(CCN)c4ccccc34)C(=O)NC2=O)c2ccccc21,4.73,13.4
O=C(CCCCCCNC(=O)C(O)(O)C(F)(F)F)Nc1ccc(Br)cc1,0.821,2.68
CC(=O)N=c1ccc2nc3c(cc(N)c4ccccc43)oc-2c1,0.274,1.4
Cc1ccc(S(=O)(=O)N2CCc3ccc(O)c4c3C2Cc2cc(Cl)ccc2-4)cc1 (stereo not given),0.707,1.92
COc1ccccc1CNCCCN1C(=O)c2ccc3c4c(ccc(c24)C1=O)C(=O)N(CCCNCCCN)C3=O,0.246,2.24
COC(=O)C1=C(C(=O)OC)C23C=C(C)C1C2=C(C)C1(CC1)[C@@](C)(O)C3=O (stereo not given in full),0.181,0.421
NS(=O)(=O)c1ccc(CCN=C=S)cc1,0.38,2.86
CCn1cnc2c(Nc3cccc(Cl)c3)nc(N[C@@H]3CCCC[C@@H]3N)nc21,1.86,4.36
CC(=O)OC[C@]12CC[C@@H](C(=O)/C=C/c3cccnc3)[C@@H]1[C@H]1CC[C@@H]3[C@@]4(C)CC[C@H](OC(C)=O)C(C)(C)[C@@H]4CC[C@@]3(C)[C@]1(C)CC2,1.77,4.41
C[C@H]1[C@H](C)CC[C@]2(C(=O)O)CC[C@]3(C)C(=CC[C@@H]4[C@@]5(C)C/C(=C/c6ccco6)C(=O)C(C)(C)[C@@H]5CC[C@]43C)[C@H]12,4.07,17.4
C[C@@H]1C=C2C(=O)O[C@@H]3CC[C@H](C1)[C@]23O,1.75,5.5
COc1cc(-c2cc(-c3nc4ccc(Cl)cc4[nH]3)[nH]n2)cc(OC)c1OC,2.33,13.5
COC(=O)CCC/C=C\C[C@H]1C=CC(=O)/C1=C/C[C@@H](O)C/C=C\CC(F)(F)F,1.74,3.77
COC1=CC(c2ccc[nH]2)=N/C1=C\c1[nH]c(C)c(C(=O)CCCCC(=O)Nc2ccccc2)c1C,1.72,3.66
COc1ccc(/C=C/c2n[nH]c3ccc(N4CCOC4=O)cc23)cc1,2.44,4.72
